The test system of experiment [1] is differentiated L6-myotubes. As to the kind of experiment: Glucose uptake screen (Biological example 1 of WO 2019/053427). Type of experiment: cell-based. The following applies: compound at 10 μM, activity relative to isoproterenol at 10 μM, read-out: Biological example 1 of WO 2019/053427 (GU). The method, then:
(§1) Compounds described in publications referenced and incorporated herein were screened in accordance with the procedures outlined in Biological example 1 and Biological example 2 of WO 2019/053427.
L6-myoblasts were grown in Dulbecco's Modified Eagle's Medium (DMEM) containing 1 g/L glucose supplemented with 10% fetal bovine serum (FBS), 2 mM L-glutamine, 50 U/mL penicillin, […] streptomycin and 10 mM HEPES. Cells were plated at 1x 10^5 cells per mL in 24-well plates. After reaching 90% confluence the cells were grown in medium containing 2% FBS for 7 days where upon cells differentiated into myotubes. The differentiated L6-myotubes were serum-starved overnight in medium containing 0.5% fatty-acid free BSA and stimulated with Compound A at a final concentration of 1×10^−5 M in the presence of the selective β2-adrenergic receptor antagonist ICI-118551. After 1 h 40 min the cells were washed with warm, glucose free medium twice and another portion of agonist was added to the glucose free medium. After another 20 min of incubation the cells were exposed to 50 nM ^3H-2-deoxyglucose for 10 min before washed in ice cold glucose free medium three times and lysed in 400 µl/well 0.2 M NaOH for 1 h at 60° C. The cell lysate was mixed with 4 ml scintillation buffer (Emulsifier Safe, Perkin Elmer) and the radioactivity was detected in a P-counter (Tri-Carb 4810TR, Perkin Elmer).

The test system of experiment [2] is differentiated L6-myotubes. The experiment can be described thus: cAMP production relative to isoprenaline (Biological example 2 of WO 2019/053427). The class given is cell-based. The following applies: 0.25 h, compound at 10 μM, activity relative to isoproterenol at 10 μM.
From the text: For example, the level of cAMP production induced by a given compound can be determined by reference to the amount induced by a defined concentration of that compound relative to that induced by the same concentration of a reference compound, such as isoprenaline, using techniques known to those skilled in the art (e.g. following the protocol as described in the biological examples provided in WO 2019/053427, i.e. in cells, such as differentiated L6-myotubes, having been stimulated with isoprenaline or the compound with a final concentration of 1×10^−5 M, for 15 min in stimulation buffer, such as HBSS supplemented with 1% BSA, 5 mM HEPES and 1 mM IBMX, at pH 7.4).
as §1
For orientation: Changes in cAMP serve as a functional read-out for many G protein-coupled receptors.

Regarding `C[C@H]1CC[C@@H]([C@H](O)c2ccccc2)N1` (racemic) [Compound 38, Racemic mixture of (R)-[(2S,5S)-5-methyl-2-pyrrolidinyl]phenylmeth-anol and (S)-[(2R,5R)-5-methyl-2-pyrrolidinyl]phenylmeth-anol], the Emax at 10 µM in experiment [1] is 25 to 50%; in experiment [2] it was under 25%.
As for `C[C@H]1CC[C@@H]([C@@H](O)c2ccccc2)N1` (racemic) [Compound 39, Racemic mixture of (R)-[(2R,5R)-5-methyl-2-pyrrolidinyl]phenylmeth-anol and (S)-[(2S,5S)-5-methyl-2-pyrrolidinyl]phenylmeth-anol], the Emax at 10 µM was 50 to 75% in experiment [1] and under 25% in experiment [2].
Taken in the same sequence, the figures for `C[C@H]1CC[C@@H]([C@H](O)c2cccc(O)c2)N1` (racemic) [Compound 40, Racemic mixture of m-{(R)-[(2S,5S)-5-methyl-2-pyrrolidinyl]hydroxymeth-yl}phenol and m-{(S)-[(2R,5R)-5-methyl-2-pyrrolidinyl]hydroxymeth-yl}phenol] were 50 to 75% and under 25%.
Taken in the same sequence, the figures for `C[C@H]1CC[C@@H]([C@@H](O)c2cccc(O)c2)N1` (racemic) [Compound 41, Racemic mixture of m-{(R)-[(2R,5R)-5-methyl-2-pyrrolidinyl]hydroxymeth-yl}phenol and m-{(S)-[(2S,5S)-5-methyl-2-pyrrolidinyl]hydroxymeth-yl}phenol] were over 75% and under 25%.
On the same counts, the results for `CCCCNCC(O)c1ccc(O)cc1` (centres unmarked) [Compound 1, 2-(butylamino)-1-(p-hydroxyphenyl)-1-ethanol] are over 75% and under 25%.
With `CCCCNCC(O)c1cccc(Cl)c1` (centres unmarked) [Compound 2, 2-(butylamino)-1-(m-chlorophenyl)-1-ethanol], the Emax at 10 µM in experiment [1] is 25 to 50%; in experiment [2] it was under 25%.
Turning to `Oc1ccc(C(O)CNCC2CC2)cc1` (centres unmarked) [Compound 3, p-{2-[(cyclopropylmethyl)ami-no]-1-hydroxyethyl}phenol], the Emax at 10 µM was 50 to 75% in experiment [1] and under 25% in experiment [2].
On the same counts, the results for `CC(C)(C)NCC(O)c1ccc(O)cc1` (centres unmarked) [Compound 4, 2-(tert-butylamino)-1-(p-hydroxyphenyl)-1-ethanol] are over 75% and 25 to 50%.
Taken in the same sequence, the figures for `CCC(C)NCC(O)c1ccc(O)cc1` (centres unmarked) [Compound 5, 2-(sec-butylamino)-1-(p-hydroxyphenyl)-1-ethanol] were 50 to 75% and under 25%.
Taken in the same sequence, the figures for `Oc1ccc(C(O)CNCC2CCCCC2)cc1` (centres unmarked) [Compound 6, 2-[(cyclohexylmethyl)ami-no]-1-(p-hydroxyphenyl)-1-ethanol] were over 75% and under 25%.
For the compound `OC(CNCC1CCCCC1)c1ccccc1` (centres unmarked) [Compound 7, 2-[(cyclohexylmethyl)ami-no]-1-phenyl-1-ethanol], the Emax at 10 µM in experiment [1] was 25 to 50%; in experiment [2], under 25%.
`CCCC(C)NCC(O)c1ccc(O)cc1` (centres unmarked) [Compound 8, 1-(p-hydroxyphenyl)-2-(1-methylbutylamino)-1-ethanol]: the Emax at 10 µM was in the range of 50 to 75% in experiment [1] and 25 to 50% in experiment [2].
As to `CCCCNC[C@H](O)c1ccc(O)cc1` [Compound 9, (R)-2-(butylamino)-1-(p-hydroxyphenyl)-1-ethanol], the figures for the Emax at 10 µM in experiment [1] and in experiment [2] were over 75% and under 25%, respectively.
As to `Oc1ccc(C(O)CNC2CCCC2)cc1` (centres unmarked) [Compound 10, p-[2-(cyclopentylamino)-1-hydroxyethyl]phenol], the Emax at 10 µM in experiment [1] is 50 to 75%; in experiment [2], under 25%.
Take `Oc1ccc(C(O)CNC23CC4CC(CC(C4)C2)C3)cc1` (centres unmarked) [Compound 11, p-[2-(1-adamantanylamino)-1-hydroxyethyl]phenol]: the Emax at 10 µM in experiment [1] is 25 to 50%; in experiment [2], under 25%.
As for `CCCCNC(C)C(O)c1ccc(O)cc1` (centres unmarked) [Compound 12, 2-(butylamino)-1-(p-hydroxyphenyl)-1-propanol], the Emax at 10 µM in experiment [1] is 50 to 75%; in experiment [2], under 25%.
Taken in the same sequence, the figures for `CCCC(C)NC(C)C(O)c1ccc(O)cc1` (centres unmarked) [Compound 13, 1-(p-hydroxyphenyl)-2-(1-methylbutylamino)-1-propanol] were 50 to 75% and under 25%.
For `CCCC(C)NCC(O)c1cccc(O)c1` (centres unmarked) [Compound 14, 1-(m-hydroxyphenyl)-2-(1-methylbutylamino)-1-ethanol], the Emax at 10 µM in experiment [1] was over 75%; in experiment [2] it was under 25%.
Consider `CCCCNCC(O)c1cccc(O)c1` (centres unmarked) [Compound 15, 2-(butylamino)-1-(m-hydroxyphenyl)-1-ethanol], for which the Emax at 10 µM in experiment [1] is 50 to 75%; in experiment [2], under 25%.
Taken in the same sequence, the figures for `Oc1ccc(C(O)CNCCC2CCCCC2)cc1` (centres unmarked) [Compound 16, 2-(2-cyclohexylethylamino)-1-(p-hydroxyphenyl)-1-ethanol] were 25 to 50% and under 25%.
On the same counts, the results for `CCCCCCNCC(O)c1ccc(O)cc1` (centres unmarked) [Compound 17, 2-(hexylamino)-1-(p-hydroxyphenyl)-1-ethanol] are 25 to 50% and under 25%.
On to `CCCCCCCCNCC(O)c1ccc(O)cc1` (centres unmarked) [Compound 18, 1-(p-hydroxyphenyl)-2-(octylamino)-1-ethanol], for which the Emax at 10 µM in experiment [1] is 25 to 50%; in experiment [2], under 25%.
On the same counts, the results for `CCCC(C)NCC(O)c1ccc(O)c(Cl)c1` (centres unmarked) [Compound 19, 1-(3-chloro-4-hydroxyphenyl)-2-(1-methylbutylamino)-1-ethanol] are 25 to 50% and under 25%.
As to `CCCCNCC(O)c1ccc(O)c(Cl)c1` (centres unmarked) [Compound 20, 2-(butylamino)-1-(3-chloro-4-hydroxyphenyl)-1-ethanol], the Emax at 10 µM in experiment [1] is 25 to 50%; in experiment [2], under 25%.
As to `Oc1ccc(C(O)CNCCCC2CCCCC2)cc1` (centres unmarked) [Compound 21, 2-(3-cyclohexylpropylamino)-1-(p-hydroxyphenyl)-1-ethanol], the Emax at 10 µM is over 75% in experiment [1] and under 25% in experiment [2].
Taken in the same sequence, the figures for `CCCC(C)NCC(O)c1cc(Cl)c(N)c(Cl)c1` (centres unmarked) [Compound 22, 1-(4-amino-3,5-dichlorophenyl)-2-(1-methylbutylamino)-1-ethanol] were over 75% and 50 to 75%.
For `CCCCNCC(O)c1cc(Cl)c(O)c(Cl)c1` (centres unmarked) [Compound 23, 2-(butylamino)-1-(3,5-dichloro-4-hydroxyphenyl)-1-ethanol], the Emax at 10 µM in experiment [1] and in experiment [2] was under 25% throughout.
Consider `Oc1ccc(C(O)CNCCC2CC2)cc1` (centres unmarked) [Compound 24, p-[2-(2-cyclopropylethylamino)-1-hydroxyethyl]phenol], for which the Emax at 10 µM in experiment [1] was 50 to 75%; in experiment [2] it was under 25%.
Taken in the same sequence, the figures for `CCCC(C)NCC(O)c1cc(Cl)c(O)c(Cl)c1` (centres unmarked) [Compound 25, 1-(3,5-dichloro-4-hydroxyphenyl)-2-(1-methylbutylamino)-1-ethanol] were under 25% and under 25%.
On the same counts, the results for `CCCCNCC(O)c1cc(O)cc(O)c1` (centres unmarked) [Compound 26, 5-[2-(butylamino)-1-hydroxyethyl]resorcinol] are 50 to 75% and under 25%.
On the same counts, the results for `CCC[C@@H](C)NC[C@H](O)c1ccc(O)cc1` [Compound 27, (R)-2-[(R)-1-methylbutylamino]-1-(p-hydroxyphenyl)-1-ethanol] are over 75% and 25 to 50%.
In the case of `CCC[C@@H](C)NC[C@H](O)c1cccc(O)c1` [Compound 28, (R)-2-[(R)-1-methylbutylamino]-1-(m-hydroxyphenyl)-1-ethanol], the Emax at 10 µM was over 75% in experiment [1] and 50 to 75% in experiment [2].
Taken in the same sequence, the figures for `CCCCNCC(O)c1cc(Cl)c(N)c(Cl)c1` (centres unmarked) [Compound 29, 1-(4-amino-3,5-dichlorophenyl)-2-(butylamino)-1-ethanol] were over 75% and 25 to 50%.
On the same counts, the results for `Oc1ccc(C(O)CNCCCC2CC2)cc1` (centres unmarked) [Compound 30, 2-(3-cyclopropylpropylamino)-1-(p-hydroxyphenyl)-1-ethanol] are over 75% and under 25%.
As for `Oc1ccc(C(O)CNCCCC(F)(F)F)cc1` (centres unmarked) [Compound 31, 1-(p-hydroxyphenyl)-2-(4,4,4-trifluorobutylamino)-1-ethanol], the Emax at 10 µM in experiment [1] lay in the range of 50 to 75%.
`CCCCNCC(O)c1cc(Cl)c(N)c(C(F)(F)F)c1` (centres unmarked) [Compound 32, 1-[4-amino-3-chloro-5-(trifluoromethyl)phenyl]-2-(butylamino)-1-ethanol]: the Emax at 10 µM in experiment [1] is over 75%; in experiment [2] it was 25 to 50%.

The record behind these values is US20260256751A1, “COMBINATION OF BETA-2-ADRENERGIC RECEPTOR AGONISTS AND GLP-1 RECEPTOR AGONISTS FOR USE IN TREATING HYPERGLYCAEMIA” (ATROGI AB, priority 2023, published 2026).
